SMILES strings stand for the structures.

The test system of one data set is 3-epimerase. In words: Specificity of 3-epimerase for substrate. Particulars: 10 mM monosaccharide. Type of data set: biochemical, Thermogemmatispora carboxidivorans. The procedure:
(§1) In the current experimental examples, the enzyme activity is measured using fructose and sorbose as substrates. In order to measure the enzyme activity, 3-epimerase is mixed with 50 mM sodium phosphate buffer solution (pH 7.5) containing 10% fructose or sorbose, reacted at 60° C. for 20 minutes, and then heated at 100° C. for 15 minutes to terminate the reaction. The sodium phosphate buffer solution containing fructose or sorbose is prepared by dissolving fructose or sorbose in a sodium phosphate buffer solution pH 7-8 to give a concentration of 60-70% (w/v). The sodium phosphate buffer solution containing fructose or sorbose is continuously added to a bioreactor maintained at 60° C. For the purpose of facilitating the comparison of enzyme activities, one unit of allulose-3-epimerase is defined as an amount of allulose-3-epimerase required to produce […] of D-allulose per minute at pH 7.5 and 60° C.; and one unit of tagatose-3-epimerase is defined as an amount of tagatose-3-epimerase required to produce […] of D-tagatose per minute at pH 7.5 and 60° C. The concentrations of fructose, D-allulose, sorbose, and D-tagatose are determined by high performance liquid chromatography with a BP-100 calcium ion […] column and an RI detector. The column temperature is 80° C., and the mobile phase is ultrapure water with a flow rate of 0.5 mL/min.
The reaction catalyzed by 3-epimerase was carried out in a 50 mM sodium phosphate buffer solution pH 7.5 at 60° C. for 20 minutes, where the sodium phosphate buffer solution contained 0.04 U/ml 3-epimerase and 10 mM of various individual monosaccharides shown in Table 2 below. Each reaction solution was heated at 100° C. for 15 minutes to terminate the reaction, and then the enzyme activity of the 3-epimerase in each reaction solution was measured.
Take `O=C(CO)[C@H](O)[C@H](O)[C@H](O)CO` [D-allulose, D-ribo-2-hexulose]: the “3-epimerase activity for substrate” value is “active”. Turning to `O=C(CO)[C@@H](O)[C@@H](O)[C@H](O)CO` [D-tagatose], the “3-epimerase activity for substrate” value is “active”.

As to `O=C(CO)[C@@H](O)[C@H](O)[C@H](O)CO` [Fructose, D-fructose], the “3-epimerase activity for substrate” value is “active”. `O=C(CO)[C@H](O)[C@@H](O)[C@H](O)CO` [Sorbose, D-sorbose]: the “3-epimerase activity for substrate” value was “active”.

Staying with this data set, now noted: 0.04 U/ml 3-epimerase, 10 mM monosaccharide as substrate, pH 7.5, 60° C., 20 minutes.
As for `O=C(CO)[C@H](O)[C@H](O)[C@H](O)CO` [D-allulose, D-ribo-2-hexulose], the “Relative activity (%)” value is recorded as 100%. Turning to `O=C(CO)[C@@H](O)[C@@H](O)[C@H](O)CO` [D-tagatose], the “Relative activity (%)” value is on record as 40.7%. For the compound `O=C(CO)[C@@H](O)[C@H](O)[C@H](O)CO` [Fructose, D-fructose], the “Relative activity (%)” value is on record as 63.9%.

Regarding `O=C(CO)[C@H](O)[C@@H](O)[C@H](O)CO` [Sorbose, D-sorbose], the “Relative activity (%)” value is listed as 21%.

The next data set deals with 3-epimerase. In words: Metal dependence of 3-epimerase. Type of data set: biochemical, Thermogemmatispora carboxidivorans. Particulars: 1 mM metal ion, fructose as substrate. The procedure: as §1, with “In order to measure the enzyme activity, 3-epimerase is mixed with 50 mM sodium phosphate buffer solution (pH 7.5) containing 10% fructose or sorbose, reacted at 60° C. for 20 minutes, and then heated at 100° C. for 15 minutes to terminate the reaction.” left out, “mL/min. In Example 3, in order to investigate the effect of metal ions on the 3-epimerase, the effect on the activity of 3-epimerase was measured with fructose as a substrate in the presence of various metal ions. The measurement was carried out by treating 3-epimerase with EDTA, and then adding 1 mM of various metal ions shown in Table 1 below to the 3-epimerase solution. The reaction catalyzed by 3-epimerase was carried out in a 50 mM Tris buffer pH 7.5 at 60° C. for 20 minutes, where the Tris buffer contained 0.04 U/mL 3-epimerase and 10% (w/v) fructose. The reaction solution was further heated at 100° C. for 15 minutes to terminate the reaction, and then the activity of the 3-epimerase was measured.” for “mL/min.”
Turning to `[Co+2]` [Co^2+], the “effect of metal ion on enzyme activity” value is listed as “enhance the enzyme activity”. For `[Cu+2]` [Cu^2+], the “effect of metal ion on enzyme activity” value is “inhibit the enzyme activity”.

In the case of `[Mg+2]` [Mg^2+], the “effect of metal ion on enzyme activity” value is “enhance the enzyme activity”. Take `[Mn+2]` [Mn^2+]: the “effect of metal ion on enzyme activity” value is given as “enhance the enzyme activity”.

As to `[Zn+2]` [Zn^2+], the “effect of metal ion on enzyme activity” value is “inhibit the enzyme activity”.

Still in this data set, the particulars now being: EDTA-treated 3-epimerase 0.04 U/mL, 1 mM metal ion, 10% (w/v) fructose, Tris pH 7.5, 60° C., 20 minutes; None = 100.
In the case of `[Ca+2]` [Ca^2+], the “Relative activity (%)” value turned out to be 65%. Take `[Co+2]` [Co^2+]: the “Relative activity (%)” value was 170%. For the compound `[Cu+2]` [Cu^2+], the “Relative activity (%)” value is 0%.

On to `[K+]` [K^+], for which the “Relative activity (%)” value came to 113%. With `[Mg+2]` [Mg^2+], the “Relative activity (%)” value amounted to 130%.

On to `[Mn+2]` [Mn^2+], for which the “Relative activity (%)” value was 168%. Still for that read-out and setting: the value for `[Na+]` [Na^+] was 120%; that for `[Zn+2]` [Zn^2+] was 0%.

Tested on in a further data set: not given
Assay: not given
To be noted: in humans; cited from earlier work.
For the compound `O=C(CO)[C@@H](O)[C@@H](O)[C@H](O)CO` [D-tagatose], the absorption rate is on record as 20 to 25%.

Values taken from patent publication US10781467B2, “3-epimerase and polynucleotide encoding same” (priority 2016, dated 2020).
